Publication PMC4648050, “Discovery of Inhibitors of Trypanosoma brucei by Phenotypic Screening of a Focused Protein Kinase Library” (Chemmedchem, 2015)
pEC50: −log10 of the molar value. “Also recorded” adds a separate entry of the source. Like-named read-outs stand apart in the source and are kept apart here.

System: T. brucei bloodstream-stage cells
Test: Static–cidal (SC) assay
Type: cell-based, Trypanosoma brucei brucei
Settings: for pEC50: 48 h
Experimental: Determination of cidality against T. brucei bloodstream-stage cells was performed using a static–cidal (SC) assay as previously reported.[26] Briefly, bloodstream-form trypanosomes were seeded into 384-well plates at 4×10^5 mL^−1 (50 μL per well), followed by immediate addition of resazurin (50 μM final) to one of the plates, and all plates were incubated at 37 °C, 5 % CO2. After 4 h the t0 plate was read using a PerkinElmer Victor 3 plate reader (λex=528 nm, λem=590 nm). The second plate was processed in the same manner 20 h later, and at 44 h the last plate was processed. The minimum cidal concentration (MCC) is defined as the lowest concentration of drug that results in a decrease of resorufin signal over time. For dose–response curves from this assay either a monophasic or a biphasic equation was used, depending on which one provided the best fit. For monophasic fits, the following four-parametric equation [Eq. (1)] was used:
in which A=percent inhibition at bottom, B=percent inhibition at top, C=EC50, D=slope, x=inhibitor concentration, and y=percent inhibition. Equation (2) was used for biphasic fits:
for which A=percent inhibition at mid-plateau, B=slope, C=log[SC EC50(1)], D=log[SC EC50(2)]. Thus SC EC50(1) is the EC50 for the first phase of the curve, and SC EC50(2) is that for the second phase. Inhibition at the bottom of the curve is fixed at 0 % and at the top, 100 %.

pEC50 (Trypanosoma brucei, static cidal EC50, first site/phase, read-out: SC EC50(1)): 7.00 | pEC50 (Trypanosoma brucei, static cidal EC50, second site/phase, read-out: SC EC50(2)): < 4.30
SMILES: O=c1[nH]c2ncc(-c3ccccc3CO)nc2n1C1CCCCC1 [Compound 28]
MCC (Trypanosoma brucei, static–cidal assay in triplicate, read-out: MCC (minimal cidal concentration)): > 50 µM | mode of antiparasitic effect (in words) (text and figure legend, at concentrations tested): growth-slowing or static behaviour; also recorded: growth-slowing
